Read-outs that look alike come from different tables or passages of the source.
Assays:
SK-N-AS cells [1] = experiment: Cytopathologic changes after taxol exposure; assay type: cell-based, human; settings: 1 μg/ml for 1 hour
Source text: Apoptosis was recognized as acute change in the cells. These included chromatin clumping at the periphery of the nucleus, loss of cytoplasmic detail and finally apoptotic bodies, either readily detached or floating with several being phagocytosed by surrounding cells.

SK-N-AS cells [2] = experiment: Effects of spacing exposure to taxol on toxicity in SK-N-AS cells
Experimental: Stock cells in 25 cm^2 flasks were incubated in Dubelco's modified Eagle's medium (Sigma, St. Louis, Mo.) containing 10% fetal bovine serum at 37° C. and 5% CO2 in air for 5 days. Media was renewed on the sixth day and on the seventh day the cells were detached into a single cell suspension with trypsin EDTA, counted and aliquots plated at 3000 to 5000 cells in 0.1 ml fresh media in separate wells of a 96-well microliter plate (Becton-Dickinson Labware, Lincoln Park, N.J.). […] Six replicate wells were used in every experiment as controls and for each test concentration. Each experiment was repeated three separate times. Viability of the cell lines 5 days after exposure to drugs was determined by the MTT assay following published procedures.

[3] = 40 mg/kg single IP
Source text: (§1) Five nude mice were maintained in each cage with a fiberglass bonnet in a clean isolation room. All cages and food were sterilized prior to use. Female nude mice were inoculated subcutaneously with 3×10^6 human neuroblastoma (SK-N-AS) tumor cells. Between 8-16 days, tumor growth was evident and measured.
Following sacrifice by cervical dislocation, tumor and normal tissues were immediately removed, sonicated, diluted in buffer (PBS containing 0.25% BSA, 0.05%, Tween 20, Methanol 20%, and Sodium Azide 2%). […] Tissue protein was determined using the BioRad kit (BioRad, 3300 Regatta Boulevard, Richmond, Calif. 94804).

clinical = experiment: clinical; set-up: species or system human patients; settings: human, in vivo, iv
Source text: Characteristics of the group of twenty were: male (5); female (15); median age 44 (17-81); ECOG-PS 1 (0-3). All were previously treated with chemotherapy and radiation for cancers of the breast (5), ovarian (2), brain (3), prostate (1), head and neck (4), bone (2), leiomyosarcoma (2), and melanoma (1).

SK-N-AS cells [4] = experiment: Sensitivity to a second dose of taxol at different times after a first dose (FIG. 1); assay type: cell-based, human
[5] = Human toxicity, Q4D schedule (Study X); assay type: in vivo, human patients
Source text: […] It should be understood that these patients were deemed "salvage" cases almost all of whom had not responded to conventional treatment. All were otherwise thought to be beyond approved therapeutic regimens. Thus, the results and evaluation are anecdotal in nature and are not part of a controlled and statistical valid clinical trial.
[…] All were previously treated with chemotherapy and radiation for cancers of the breast (5), ovarian (2), brain (3), prostate (1), head and neck (4), bone (2), leiomyosarcoma (2), and melanoma (1).

[6] = Toxicity in nude mice (wasting, weight loss); assay type: in vivo
[7] = system: SK-N-AS neuroblastoma tumor in nude mice; assay type: in vivo
Source text: as §1

[8] = Homo sapiens, SK-N-AS, 120 h, read-out: Survival (%)

## CC(=O)O[C@H]1C(=O)[C@@]2(C)[C@H]([C@H](OC(=O)c3ccccc3)[C@]3(O)C[C@H](OC(=O)[C@H](O)[C@@H](NC(=O)c4ccccc4)c4ccccc4)C(C)=C1C3(C)C)[C@]1(OC(C)=O)CO[C@@H]1C[C@@H]2O [taxol]
SK-N-AS cells [1]
  time of abnormal mitosis and polyploidy: 36 to 72 h
  time of apoptosis: 6 to 24 h
SK-N-AS cells [1]; at 24, 48 and 72 hours
  cells altered by taxol: Approximately 30%
SK-N-AS cells [2]; [8]
  viability at 0.3 µg/mL: 61%
  viability at 0.6 µg/mL: 24%
SK-N-AS cells [2]; single exposure 0.6 μg/ml/h
  cytotoxic effects of single vs split exposure: greater than when taxol was scheduled as 0.3 μg/ml given once and once again after 30 minutes
[3]; day 1
  Tumor size: 378 mm^2
[3]; day 2
  Tumor size: 480 mm^2
[3]; day 3
  Tumor size: 208 mm^2
[3]; day 4
  Tumor size: 80 mm^2
[3]; day 5
  Tumor size: 252 mm^2
[3]; day 6
  Tumor size: 154 mm^2
clinical
  Kp: 0.01
  peripheral blood CMAX: 1400 ng/mL
clinical; 0-40 ng/ml CMAX (so in the source)
  Cmax: < 40 ng/mL
clinical; T1/2 α
  half-life: 15 min
clinical; distributive phase T1/2 α
  half-life: 7 to 20 min
clinical; peripheral blood CMAX
  Cmax: 1240 ng/mL
SK-N-AS cells [4]; after initial exposure, concluded
  time to revertant taxol susceptibility: four
SK-N-AS cells [4]; second dose 24 to 120 hours after first, two experiments
  sensitivity to second dose of taxol: rebounded at the fourth day and continued to the fifth day to the original sensitivity levels
[5]; 45-120 mg/m^2, 60-180 minutes, Q4D×3
  toxic reaction and side effects vs twenty-four hour infusion: less toxic reaction and side effects than equivalent dosage levels over a twenty-four hour infusion
[5]; 80 minute interval
  maximum amount infused without exceeding toxicity limits: 120 mg/m^2
[5]; Q4D 60 mg/m^2
  Alk. Phos. toxicity: A None: 18
  Alk. Phos. toxicity: B Abnormal pre-III, Improved: 3
  Alk. Phos. toxicity: C Abnormal pre-III, Worsened or same: 1
  Alk. Phos. toxicity: D Normal pre-III, Worsened: 1
  Alk. Phos. toxicity: E Grades: 1
  Bilirubin toxicity: A None: 22
  Bilirubin toxicity: B Abnormal pre-III, Improved: 0
  Bilirubin toxicity: C Abnormal pre-III, Worsened or same: 0
  Bilirubin toxicity: D Normal pre-III, Worsened: 1
  Bilirubin toxicity: E Grades: 1
  HB toxicity: A None: 18
  HB toxicity: B Abnormal pre-III, Improved: 1
  HB toxicity: C Abnormal pre-III, Worsened or same: 2
  HB toxicity: D Normal pre-III, Worsened: 2
  HB toxicity: E Grades: 1,4
  PLT. toxicity: A None: 19
  PLT. toxicity: B Abnormal pre-III, Improved: 0
  PLT. toxicity: C Abnormal pre-III, Worsened or same: 3
  PLT. toxicity: D Normal pre-III, Worsened: 1
  PLT. toxicity: E Grades: 3
  SGOT toxicity: A None: 20
  SGOT toxicity: B Abnormal pre-III, Improved: 0
  SGOT toxicity: C Abnormal pre-III, Worsened or same: 0
  SGOT toxicity: D Normal pre-III, Worsened: 3
  WBC toxicity: A None: 15
  WBC toxicity: B Abnormal pre-III, Improved: 0
  WBC toxicity: C Abnormal pre-III, Worsened or same: 2
  WBC toxicity: D Normal pre-III, Worsened: 6
[5]; Q4D 60 mg/m^2, 11 pts
  GGT toxicity: A None: 9
  GGT toxicity: B Abnormal pre-III, Improved: 2
  GGT toxicity: C Abnormal pre-III, Worsened or same: 0
  GGT toxicity: D Normal pre-III, Worsened: 0
[5]; Q4D 60 mg/m^2, 22 pts
  Alb. toxicity: A None: 22
  Alb. toxicity: B Abnormal pre-III, Improved: 0
  Alb. toxicity: C Abnormal pre-III, Worsened or same: 0
  Alb. toxicity: D Normal pre-III, Worsened: 0
  BUN toxicity: A None: 21
  BUN toxicity: B Abnormal pre-III, Improved: 0
  BUN toxicity: C Abnormal pre-III, Worsened or same: 0
  BUN toxicity: D Normal pre-III, Worsened: 0
  Creat toxicity: A None: 21
  Creat toxicity: B Abnormal pre-III, Improved: 0
  Creat toxicity: C Abnormal pre-III, Worsened or same: 0
  Creat toxicity: D Normal pre-III, Worsened: 0
  LDH toxicity: A None: 18
  LDH toxicity: B Abnormal pre-III, Improved: 3
  LDH toxicity: C Abnormal pre-III, Worsened or same: 0
  LDH toxicity: D Normal pre-III, Worsened: 0
  T P toxicity: A None: 21
  T P toxicity: B Abnormal pre-III, Improved: 0
  T P toxicity: C Abnormal pre-III, Worsened or same: 0
  T P toxicity: D Normal pre-III, Worsened: 0
[5]; Q4D regimen, also without pretreatment
  toxicity or hypersensitivity vs currently recommended dosages: reduced toxicity or hypersensitivity reactions
[5]; Q4D schedule
  CMAX taxol-associated toxicity: no clinically significant CMAX taxol-associated toxicity
[5]; in vivo
  abnormalities on UA., CA^++, Phos, CO2, Cl, Na^+, K^+, Mg^+: No abnormalities detected
  alopecia: 2/4
  diploplia for several hours each day following treatment: One
  malaise and fatigue: Four
[5]; treatment days separated by 3-5 days
  toxicity of infusion with separated treatment days: toxicity of the taxol infusion was diminished
[6]; 10 mg/kg IP Q4D×3, neuroblastoma tumor bearing nude mice
  toxicity of dosage: non-toxic dosage
[6]; 15 mg/kg every 4 hours×3 in one day
  toxicity of schedule: equally non-toxic
[6]; 15 mg/kg every 4 days×3
  toxicity of schedule: equally non-toxic
[6]; Study B, 15 mg/kg IP Q4D×3
  indications of toxicity (wasting or weight loss): no indications of toxicity
[7]; 10 mg/kg IP Q4D×3
  antitumor activity in words: antitumor activity ranging from tumor growth inhibition to tumor lysis
  variance in response to drug therapy: ranging from tumor lysis to slowed growth
[7]; Study C, 10 mg/kg IP Q4D×3
  mice with delayed tumor growth: 4/5
  mice with tumor regression: 1/5
[7]; Treated Group B, 10 mg/kg IP Q4D×3
  tumor sizes or weight gain, day 1 vs day 14: no significant difference in tumor sizes or weight gain
[7]; mouse, in vivo
  weight gain between day 1 and day 14: no significant weight gain
[7]; mouse, in vivo, ip, 10 mg/kg
  Wt, Day #1, MEAN: 26.6
  Wt, Day #14, MEAN: 28.8
[7]; treated, 10 mg/kg IP Q4D×3, S.E. ±5.1
  Tumor area, Day #1, MEAN: 60.3
[7]; treated, 10 mg/kg IP Q4D×3, S.E. ±21.5
  Tumor area, Day #5, MEAN: 93
[7]; treated, 10 mg/kg IP Q4D×3, S.E. ±23.6
  Tumor area, Day #9, MEAN: 105.6
[7]; treated, 10 mg/kg IP Q4D×3, S.E. ±54.8
  Tumor area, Day #14, MEAN: 142
